Measurements as given in PubChem BioAssay (NCI).
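Tested at 5 concentrations; 48 h exposure; 96-well plates; endpoints linearly interpolated, else capped at highest concentration. GI50 marks 50% less growth. The concentration for full growth arrest is given as TGI.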

Key:
Assay in all cases: NCI anticancer screen, dose series, 48 h
[1] = tested on: ACHN renal
[2] = tested on: HT29 colon
[3] = tested on: DU-145 prostate
[4] = tested on: A549 NSCLC
[5] = tested on: SN12C renal
[6] = tested on: PC-3 prostate
[7] = tested on: EKVX NSCLC
[8] = tested on: SF-295 CNS
[9] = tested on: SF-539 CNS
[10] = tested on: MCF7 breast
[11] = tested on: RXF 393 renal
[12] = tested on: HCT-116 colon
[13] = tested on: MDA-MB-435
[14] = tested on: NCI-H23 lung
[15] = tested on: HCT-15 colon
[16] = tested on: SW-620 colon
[17] = tested on: HOP-92 NSCLC
[18] = tested on: U251 CNS
[19] = tested on: KM12 colon
[20] = tested on: 786-0 renal
[21] = tested on: IGROV1 ovarian
[22] = tested on: RPMI-8226 leukemia
[23] = tested on: NCI/ADR-RES ovarian
[24] = tested on: UACC-257 melanoma
[25] = tested on: MOLT-4 leukemia
[26] = tested on: SK-MEL-5 melanoma
[27] = tested on: OVCAR-4 ovarian
[28] = tested on: HCC-2998 colon
[29] = tested on: BT-549 breast
[30] = tested on: SK-MEL-28 melanoma
[31] = tested on: CAKI-1 renal
[32] = tested on: OVCAR-8 ovarian
[33] = tested on: SNB-19 CNS
[34] = tested on: UACC-62 melanoma
[35] = tested on: NCI-H522 lung
[36] = tested on: T-47D breast
[37] = tested on: SR leukemia
[38] = tested on: LOX IMVI melanoma
[39] = tested on: HOP-62 NSCLC
[40] = tested on: MALME-3M melanoma
[41] = tested on: COLO 205 colon
[42] = tested on: OVCAR-3 ovarian
[43] = tested on: TK-10 renal
[44] = tested on: NCI-H460 lung
[45] = tested on: OVCAR-5 ovarian
[46] = tested on: K-562 leukemia
[47] = tested on: HS 578T breast
[48] = tested on: M14 melanoma
[49] = tested on: SK-OV-3 ovarian
[50] = tested on: MDA-MB-231 breast
[51] = tested on: SF-268 CNS
[52] = tested on: A498 renal
[53] = tested on: SK-MEL-2 melanoma
[54] = tested on: NCI-H226 lung
[55] = tested on: UO-31 renal

For `Nc1nc(SCc2ccccc2)nc2[nH]ncc12`, the GI50 [1] was 15.5 µM, the TGI [1] was 31.6 µM and the GI50 [2] was 17.1 µM. The TGI [2] was 49.3 µM, the GI50 [3] was 21.2 µM and the TGI [3] was 55.4 µM. The GI50 [4] was 13.6 µM, the TGI [4] was 29.1 µM and the GI50 [5] was 16.9 µM. For the same compound, the TGI [5] was 31.3 µM, the GI50 [6] was 13.7 µM and the TGI [6] was 28.7 µM. It also gave a GI50 [7] of 16.1 µM, a TGI [7] of 35.8 µM and a GI50 [8] of 14.8 µM. The TGI [8] was 29 µM, the GI50 [9] was 19 µM and the TGI [9] was 41.7 µM. It also gave a GI50 [10] of 11.8 µM, a TGI [10] of 26.6 µM and a GI50 [11] of 3.62 µM. The TGI [11] was 11.5 µM, the GI50 [12] was 13.2 µM and the TGI [12] was 26.3 µM. The GI50 [13] was 15.8 µM, the TGI [13] was 29.9 µM and the GI50 [14] was 12.6 µM. It also gave a TGI [14] of 25.8 µM, a GI50 [15] of 20.4 µM and a TGI [15] greater than 100 µM. It also gave a GI50 [16] of 17.9 µM, a TGI [16] of 37.6 µM and a GI50 [17] of 2.54 µM. It also gave a TGI [17] of 11.7 µM, a GI50 [18] of 14.9 µM and a TGI [18] of 33.6 µM. It also gave a GI50 [19] of 14.1 µM, a TGI [19] of 28.4 µM and a GI50 [20] of 18.7 µM. The TGI [20] was 36 µM, the GI50 [21] was 19.4 µM and the TGI [21] was 41.8 µM. For the same compound, the GI50 [22] was 7.76 µM, the TGI [22] was 46 µM and the GI50 [23] was 12.3 µM. It also gave a TGI [23] of 27.8 µM, a GI50 [24] of 14.6 µM and a TGI [24] of 28.1 µM. The GI50 [25] was 25.7 µM, the TGI [25] was greater than 100 µM and the GI50 [26] was 12 µM. For the same compound, the TGI [26] was 25.1 µM, the GI50 [27] was 12.2 µM and the TGI [27] was 37.1 µM. The GI50 [28] was 19.6 µM, the TGI [28] was 34.4 µM and the GI50 [29] was 17.3 µM. For the same compound, the TGI [29] was 35.1 µM, the GI50 [30] was 17.1 µM and the TGI [30] was 35.9 µM. It also gave a GI50 [31] of 15.2 µM, a TGI [31] of 28.8 µM and a GI50 [32] of 25.9 µM. It also gave a TGI [32] greater than 100 µM, a GI50 [33] of 19.8 µM and a TGI [33] of 42.4 µM. It also gave a GI50 [34] of 14.4 µM, a TGI [34] of 27.9 µM and a GI50 [35] of 17.9 µM. The TGI [35] was 46 µM, the GI50 [36] was 4.15 µM and the TGI [36] was 15.6 µM. The GI50 [37] was 18 µM, the TGI [37] was 51.1 µM and the GI50 [38] was 20.8 µM. It also gave a TGI [38] of 58.2 µM, a GI50 [39] of 18.7 µM and a TGI [39] of 33.4 µM. It also gave a GI50 [40] of 11.7 µM, a TGI [40] of 24.3 µM and a GI50 [41] of 17.1 µM. It also gave a TGI [41] of 53.6 µM, a GI50 [42] of 12.6 µM and a TGI [42] of 25.7 µM. It also gave a GI50 [43] of 10 µM, a TGI [43] of 21.9 µM and a GI50 [44] of 12.3 µM. For the same compound, the TGI [44] was 29.4 µM, the GI50 [45] was 17.6 µM and the TGI [45] was 31.7 µM. It also gave a GI50 [46] of 14.3 µM, a TGI [46] greater than 100 µM and a GI50 [47] of 14.3 µM. It also gave a TGI [47] of 34.5 µM, a GI50 [48] of 19.4 µM and a TGI [48] of 34.8 µM. The GI50 [49] was 20 µM, the TGI [49] was 39.1 µM and the GI50 [50] was 16.4 µM. It also gave a TGI [50] of 31.7 µM, a GI50 [51] of 20.5 µM and a TGI [51] of 69.2 µM. For the same compound, the GI50 [52] was 10 µM, the TGI [52] was 22.2 µM and the GI50 [53] was 20.7 µM. It also gave a TGI [53] of 48.9 µM, a GI50 [54] of 13.4 µM and a TGI [54] of 27.4 µM. For the same compound, the GI50 [55] was 18 µM and the TGI [55] was 38.4 µM.
